# According to PubChem BioAssay AID2305 (GlaxoSmithKline (GSK), 2010):
# pIC50: −log10 of the molar value. Where “and” joins values, the source holds several entries; their conditions need not be identical. Equal entries are not always repeated.
# Tested on: P. falciparum 3D7 growth, pLDH absorbance
# Assay: P. falciparum 3D7 growth inhibition, dose response, strain 3D7 (AID 2305)
row,Structure (SMILES),pIC50
1,COC[C@H]1CCCN1Cc1ccc(-c2ccc(-c3nc4ccccc4[nH]3)s2)cc1,6.00
2,COc1ccc2ccccc2c1CCCCN1CCN(CC(c2ccc(F)cc2)N2CCC(N3CCCC3)CC2)CC1 (configuration not stated),6.21
3,COc1cccc(-c2cccc(CNC3CCN(CC4Cn5c(=O)ccc6ccc(F)c4c65)CC3)c2)c1 (configuration not stated),6.03
4,NC1CCN(CCNCc2cccc(-c3ccc(-c4nc5ccc(C(F)(F)F)cc5[nH]4)cc3)c2)C1 (configuration not stated),6.05
5,CCN(CCCN1CCCCC1)c1cc(C)nc(Nc2cccc(C(F)(F)F)c2)n1,6.54
6,CCCCCCN1CCCN(Cc2cccc(C(=O)Nc3ccc(C(C)(C)C)cc3)c2)CC1,6.03
7,N#Cc1cccc(NC(=O)Nc2cccc(OC3CCN(Cc4ccccc4)CC3)c2)c1,6.08
8,CC(Cc1ccc(Oc2ccc(Cl)cc2)cc1)NCC(O)c1cccc(Cl)c1 (configuration not stated),6.13
9,COC(=O)c1ccc(NC(=O)c2ccc(CCN3CCC(c4nc(COCC(F)(F)F)c(-c5ccc(F)cc5)o4)CC3)cc2)cc1,5.98
10,COc1cc(CN2CCN(c3ccnc(N(C)C4CCN(C)CC4)n3)CC2)cc(Cl)c1O,6.11
11,c1cc(CN2CCC(CCN3CCCCC3)CC2)cc(-c2cccc(-c3nc4ccccc4[nH]3)c2)c1,6.85
12,Oc1ccc(CCCc2cc(Oc3c(I)cc(CCc4ncc[nH]4)cc3I)ccc2O)cc1,6.06
13,CC(=O)Nc1ccc(S(=O)(=O)N2CCN(c3nc(NC4CCCC4)c4ccccc4n3)CC2)cc1,5.99
14,CCCCCCCCNc1c2ccc(Cl)cc2nc2ccc(OC)cc12,6.09
15,c1ccc(Oc2ccc(Nc3ccnc4cc(-c5ccc(CNCCN6CCOCC6)o5)ccc34)cc2)cc1,6.36
16,O=C(/C=C/c1ccc(Cl)c(Cl)c1)NCCCCCN1CCC(NC(=O)Nc2ccc(F)cc2F)CC1,6.13
17,COc1cc2nc(Nc3ccc4c(ccn4Cc4ccccc4)c3)nc(Nc3ccc4c(ccn4Cc4ccccc4)c3)c2cc1OC,6.19
18,CN1CCN(c2cc(-c3cccc(C(F)(F)F)c3)nc(-c3ccncc3)n2)CC1,6.14
19,CN(C)c1ccc(-c2cscc2C(=O)NC2CCCN(Cc3cccnc3)C2)cc1 (configuration not stated),6.07
20,CN=C(N)c1ccc(NC(=O)C=Cc2ccc(C(=O)Nc3ccc(C(N)=NC)cc3)cc2)cc1,7.52
21,Clc1cccc(Nc2ccc3c(N4CCCCC4)ncnc3n2)c1,6.24
22,Cc1ccc(Nc2nc(C)cc(NC3CCCC3)n2)cc1,6.54
23,c1cc(-c2cc3ccc(C4=NCCN4)cc3[nH]2)ccc1C1=NCCN1,6.66
24,CN(C)c1cccc2c1nc(-c1ccco1)n2CCNCc1ccccc1,6.09

row,Structure (SMILES),pIC50
1,Oc1cccc(-c2nc3ccc(C4=N[C@@H]5CCCC[C@H]5N4)cc3[nH]2)c1,6.28
2,CN1Cc2ccc(NS(=O)(=O)c3ccc(-c4ccoc4)cc3)cc2C1,6.80
3,CC(C)CNCc1ccc(-c2ccc(CN(CCCN3CCN(C)CC3)C(=O)/C=C/c3ccccc3)cc2)cc1,6.04
4,COc1ccc2nccc([C@@H](O)CN3CCC(NCc4ccc5scnc5c4)CC3)c2c1,6.40
5,CN(C)CCNc1nccc(N2CCc3ncnc(Nc4ccc(OCc5cccc(F)c5)c(Cl)c4)c3C2)n1,6.85
6,NC(N)=NN=CC(=O)Nc1ccc(Br)cc1,6.06
7,COc1ccc2ncc(F)c(CCN3CC[C@@H](CNCc4cc5c(cn4)OCS5)C3)c2n1,5.94
8,CCCCN1Cc2c(n(CC(=O)Nc3ccccc3)c3cc(-c4ccccc4)nn3c2=O)C1=O,6.09
9,Oc1ccc(CCNc2nc(NCCCOc3ccccc3-c3cccc(C(F)(F)F)c3)nc(N3CCNCC3)n2)cc1,6.06
10,Cc1[nH]c2ccc(NS(C)(=O)=O)cc2c1C1CCN(CCC2CCN(C(=O)/C=C/c3ccc(Cl)c(Cl)c3)CC2)CC1,6.08
11,CN1CCCN(Cc2ccc(-c3ccc(NC(=O)c4cccc(C#N)c4)cc3)cc2)CC1,6.06
12,CC(C)CNCc1cccc(-c2ccccc2CN(C(=O)Nc2ccccc2)C2CCN(Cc3ccccc3)CC2)c1,6.19
13,O=C(/C=C/c1ccc(Cl)c(Cl)c1)N(Cc1ccccc1)C1CCC(CN2CCC(c3c[nH]c4ccccc34)CC2)CC1 (configuration not stated),6.68
14,N#Cc1ccc(-c2ccc(C(=O)NCCCCN3CCC(c4nc5ccccc5[nH]4)CC3)cc2)cc1,6.00
15,CC(C)c1ccc(N2CCN(CCCCNC(=O)c3ccc(NC(=O)c4cc(Cl)cc(Cl)c4)cc3)CC2)cc1,6.80
16,COc1ccc(CCNC(=O)c2cnc3c(c2)nc(-c2cnc(-c4ccccc4)[nH]2)n3CCc2cnc[nH]2)cc1,6.01
17,CN1CCN(c2ccc(-c3cc(-c4cc(F)c(F)c(F)c4)cnc3N)cc2)CC1,6.00
18,O=C(/C=C/c1cccc2ccccc12)NC1CCC(CN2CCC(c3c[nH]c4ccccc34)CC2)CC1 (configuration not stated),6.13 and 6.17
19,O=C(CN1CCN(C(=O)c2ccco2)CC1)Nc1ccccc1Br,6.25
20,CC(=O)Nc1nc(C(=O)Nc2ccc(-c3cccc(-c4nc5ccccc5[nH]4)c3)cc2)cs1,6.26
21,CCN(CC)CCN(Cc1ccc(-c2ccc(C(F)(F)F)cc2)cc1)C(=O)Cn1c(CCc2ccc(F)c(F)c2)nc(=O)c2ccccc21,5.80
22,CC(C)CNCc1cccc(-c2ccccc2CN(C(=O)NCCc2ccccc2)C2CCN(Cc3ccccc3)CC2)c1,5.93
23,COC(=O)CN(C(=O)/C=C/c1ccc(Cl)c(Cl)c1)C1CCC(CN2CCC(c3c[nH]c4ccccc34)CC2)CC1 (configuration not stated),6.29
